Legend:
[1] = target: T1, green fluorescent protein (GFP)-fused human ferroportin (Homo sapiens, UniProt Q9NP59); assay: Hepcidin bioactivity assay: GFP-ferroportin internalization and degradation; type: cell-based; conditions: stable cell line, inducible GFP-fused human ferroportin; fluorescence in triplicate wells; four parameter logistic fit; 95% confidence interval: hepcidin-24 126.8 nM - 289.2 nM, hepcidin-25 12.2 nM –17.8 nM; read-out: EC50 for ferroportin internalization and degradation
T1 construct: expressed in transfected cells
T1 sequence (Q9NP59 1-571): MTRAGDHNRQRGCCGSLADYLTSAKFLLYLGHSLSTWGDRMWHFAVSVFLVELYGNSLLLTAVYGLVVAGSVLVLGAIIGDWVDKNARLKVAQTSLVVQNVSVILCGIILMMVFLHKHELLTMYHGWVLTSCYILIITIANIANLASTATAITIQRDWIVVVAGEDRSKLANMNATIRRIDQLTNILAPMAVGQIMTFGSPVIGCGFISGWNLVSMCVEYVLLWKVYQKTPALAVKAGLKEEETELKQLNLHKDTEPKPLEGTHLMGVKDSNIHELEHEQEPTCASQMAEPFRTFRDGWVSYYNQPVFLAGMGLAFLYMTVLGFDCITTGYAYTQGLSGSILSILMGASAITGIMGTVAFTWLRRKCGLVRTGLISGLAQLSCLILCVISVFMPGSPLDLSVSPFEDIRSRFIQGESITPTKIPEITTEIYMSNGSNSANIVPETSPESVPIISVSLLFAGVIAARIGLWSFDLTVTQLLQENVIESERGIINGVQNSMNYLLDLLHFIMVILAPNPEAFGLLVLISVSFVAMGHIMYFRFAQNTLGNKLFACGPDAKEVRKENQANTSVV
Description: A stable cell line engineered for inducible expression of green fluorescent protein (GFP)-fused human ferroportin was used as a test system to determine hepcidin-24 activity relative to hepcidin-25, 22 and 20. In this cell system, ferroportin internalization and degradation provided a means to quantify hepcidin activity. The assay was implemented basically as described by Nemeth et al., [33] except that fluorescence was quantified in triplicate wells on a microplate reader. To determine EC50 values for hepcidin-25 and hepcidin-24, a curve was fitted by nonlinear regression with a four parameter logistic equation using Prism v5 (GraphPad).
Figure 5 Hepcidin-mediated ferroportin internalization. Different concentrations of synthetic hepcidin-25, -24, -22 and -20 (indicated in nM on the horizontal axis) were added to the growth medium of a stable cell line that expresses green fluorescent protein-fused ferroportin (GFP-FPN). Hepcidin-mediated GFP-FPN internalization and degradation was quantified by measuring cellular fluorescence levels in arbitrary units.

[2] = Stability of hepcidin in plasma/serum at room temperature (WCX-TOF MS); type: in vitro ADME, human
Protocol: Spectra were analyzed by using Bruker Daltonics FlexAnalysis software.
To assess the stability of hepcidin in serum and plasma matrices, we kept samples from intensive care patients (n = 20) and healthy controls (n = 5) at room temperature for 0–7 days followed by WCX-TOF MS analysis using the hepcidin-25^+40 internal standard. […] For the samples at day 1 and day 7, the mean decrease in hepcidin-25 for the 5 controls and 20 intensive care patients was 90% (CV, 8% ) and 55% (CV, 23%), respectively (Table 3).

[3] = not given; remark: listed apart in the source
in vitro [4] = conditions: human, heparin plasma
Protocol: (§1) Samples were used for measurement of hepcidin between 4–7 hrs after blood drawing and/or pooled and/or stored in aliquots at various temperatures for prolonged periods of time.
(§2) Fresh samples were measured within 2–4 hrs hours after blood drawing and stored in aliquots at various temperatures for prolonged incubation.
(§3) Mass-to-charge (m/z) spectra were generated by using MALDI-TOF MS (Microflex LT, Bruker Daltonics). Spectra were analyzed by using Bruker Daltonics FlexAnalysis software. […] Total hepcidin concentration was defined as the sum of hepcidin-25, -24, -22, and -20 concentrations.
(§4) Using the novel heavy hepcidin-25 internal standard, we assessed changes in hepcidin-25 and the smaller isoforms in various samples containing various anticoagulants ex vivo at room temperature (RT), 4°C, −20°C and −80°C. More specifically, changes in hepcidin concentrations relative to those found in freshly collected samples were determined i) at storage at RT and 4°C on day 0 (fresh samples), 1 (14–22 hrs), 2, 3, and 7 days after sampling/storage, ii) at −20°C after 1 week, and after 1, 4 and 6 months of storage and iii) at −80°C at after 6 months of storage.

in vitro [5] = conditions: human
Protocol: as §1, §2, §3, §4
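For Hepcidin level after one week at -20°C, EDTA plasma in this document: hepcidin in stored plasma or serum quantified by MALDI-TOF MS against a heavy hepcidin-25 internal standard, expressed relative to concentrations in freshly collected samples.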
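For no significant change at -20°C for in this document: hepcidin in stored plasma or serum quantified by MALDI-TOF MS against a heavy hepcidin-25 internal standard, expressed relative to concentrations in freshly collected samples.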
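For stable at -20°C for in this document: hepcidin in stored plasma or serum quantified by MALDI-TOF MS against a heavy hepcidin-25 internal standard, expressed relative to concentrations in freshly collected samples.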

SMILES: CC[C@H](C)[C@@H]1NC(=O)[C@@H](NC(=O)[C@@H](NC(=O)[C@@H]2CCCN2C(=O)[C@H](Cc2ccccc2)NC(=O)[C@H](Cc2c[nH]cn2)NC(=O)[C@@H](NC(=O)[C@@H](N)CC(=O)O)[C@@H](C)O)[C@@H](C)CC)CSSC[C@@H](C(=O)N[C@@H](CCCCN)C(=O)N[C@H](C(=O)O)[C@@H](C)O)NC(=O)[C@@H]2CSSC[C@H](NC(=O)[C@H](Cc3ccccc3)NC1=O)C(=O)N[C@H]1CSSC[C@H](NC(=O)[C@H](CCCCN)NC(=O)[C@H](CO)NC(=O)[C@H](CCCNC(=N)N)NC(=O)[C@H](Cc3c[nH]cn3)NC(=O)[C@@H]3CSSC[C@H](NC(=O)CNC1=O)C(=O)N3)C(=O)NCC(=O)N[C@@H](CCSC)C(=O)N2 [Hepcidin-25]
- EC50 [1]: 14.7 nM
- Hepcidin level after one week at RT ([2]; average, % of fresh sample, 7 days, human heparin plasma, 19 IC patients + 5 controls, results <1.0 nM removed, WCX-TOF MS, hepcidin-25^+40 internal standard, CV (Hep-25/-24/-22/-20/Total) 23/29/29/38/17, n = 24/15/13/18/11): 55%
- Hepcidin level after one day at RT ([2]; average, % of fresh sample, human heparin plasma, 19 IC patients + 5 controls, results <1.0 nM removed, WCX-TOF MS, hepcidin-25^+40 internal standard, CV (Hep-25/-24/-22/-20/Total) 8/21/14/25/5, n = 24/15/13/18/11): 90%
- Hepcidin level after one week at RT, without protease inhibitors ([2]; average, % of fresh, 7 days, heparin plasma, 10 IC patients, results <1 nM excluded, CV (Hep-25/-24/-22/-20) 30/31/23/41, n = 10/8/7/8): 48%
- Hepcidin level after one day at RT, without protease inhibitors ([2]; average, % of fresh, heparin plasma, 10 IC patients, results <1 nM excluded, CV (Hep-25/-24/-22/-20) 13/20/11/11, n = 10/8/7/8): 89%
- mean hepcidin-25 level remaining at day 1 at RT, % of fresh ([2]; heparin plasma, 5 controls and 20 intensive care patients, CV 8%): 90%
- effect of protease inhibitors on hepcidin-25 decrease ([2]; heparin samples of IC patients (n = 10), RT): prevented hepcidin-25 processing to a certain extend but did not block its decrease completely
- remaining at 168 h ([2]; human, average, % of fresh, 7 days, heparin plasma, 10 IC patients, Complete Mini (Roche), CV (Hep-25/-24/-22/-20) 25/35/9/25, n = 10/8/7/8, read-out: Hepcidin level after one week at RT, with protease inhibitors): 69%
- remaining at 1 day ([2]; human, average, % of fresh, heparin plasma, 10 IC patients, Complete Mini (Roche), 1 tablet in 200 µL PBS, 20 µL per 1 ml plasma, CV (Hep-25/-24/-22/-20) 8/30/4/14, n = 10/8/7/8, read-out: Hepcidin level after one day at RT, with protease inhibitors): 91%
- Hepcidin level after one day at 4°C, EDTA plasma (average, % of fresh, 10 IC patients and 5 controls, results <1.0 nM deleted, CV (Hep-25/-24/-22/-20) 11/6/11/22, n = 15/8/6/9): 101%
- Hepcidin level after one week at 4°C, EDTA plasma (average, % of fresh, 7 days, 10 IC patients and 5 controls, CV (Hep-25/-24/-22/-20) 9/8/18/21, n = 15/8/6/9, hepcidin-20 in stored EDTA plasma unreliable (additional peak)): 101%
- stability at 4°C for 0–7 days (heparin and EDTA plasma (10 IC patients, 5 controls), citrate plasma and serum (5 controls)): remained stable
- stable at -20°C for ([3]; EDTA and heparin plasma of 10 intensive care patients and 5 controls): at least 4 weeks
- Hepcidin level after one week at -20°C, EDTA plasma ([3]; average, % of fresh, 10 IC patients and 5 controls, CV (Hep-25/-24/-22/-20) 11/12/11/28, n = 15/8/6/9, hepcidin-20 unreliable (additional peak)): 96%
- hepcidin-25 relative to fresh samples upon freezing ([3]; heparin samples at 7 days, -20°C, IC + control n = 15, CV 8%): 95%
- no significant change at -20°C for ([3]; serum, heparin, EDTA and citrate plasma of healthy controls (n = 5)): at least 6 months
- remaining at 168 h (in vitro [4]): 99%
- remaining at 1 mnt (in vitro [5]; EDTA plasma): 94%
- remaining at 4 mnts (in vitro [5]; EDTA plasma): 92%
- remaining at 6 months (in vitro [5]; EDTA plasma): 88%
- remaining at 168 h (in vitro [5]; EDTA plasma): 89%
- remaining at 672 h (in vitro [5]; EDTA plasma): 99%
- remaining at 1 mnt (in vitro [5]; citrate plasma): 95%
- remaining at 4 mnts (in vitro [5]; citrate plasma): 102%
- remaining at 6 mnts (in vitro [5]; citrate plasma): 97%
- remaining at 168 h (in vitro [5]; citrate plasma): 97%
- remaining at 1 mnt (in vitro [5]; heparin plasma): 92%
- remaining at 4 mnts (in vitro [5]; heparin plasma): 100%
- remaining at 6 mnts (in vitro [5]; heparin plasma): 83%
- remaining at 168 h (in vitro [5]; heparin plasma): 96%
- remaining at 672 h (in vitro [5]; heparin plasma): 97%
- remaining at 1 mnt (in vitro [5]; serum): 96%
- remaining at 4 mnts (in vitro [5]; serum): 98%
- remaining at 6 mnts (in vitro [5]; serum): 99%
- remaining at 168 h (in vitro [5]; serum): 97%

From publication PMC3790851, “Improved Mass Spectrometry Assay For Plasma Hepcidin: Detection and Characterization of a Novel Hepcidin Isoform” (PLoS ONE, 2013)
